Assay results as given in ChEMBL document CHEMBL1201862, “PubChem BioAssay data set” (2004).
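Growth conditions: 96-well plates. Treatment: test compound, 48 hours, 5 concentrations. Analysis: linear interpolation between bracketing concentrations; unreached endpoints set to highest concentration. Abbreviation: GI50, concentration required for 50% inhibition of growth.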 The source made the active and inactive calls. Cut-off read from the data, not from the text of the source: active = GI50 up to about 1.1 µM and inactive = higher.

Legend:
Assay in all cases: DTP human tumour cell line panel, 48 h
786-0 = test system: 786-0
A549 = test system: A549
ACHN = test system: ACHN
BT-549 = test system: BT-549
CAKI-1 = test system: CAKI-1
CCRF-CEM = test system: CCRF-CEM
COLO 205 = test system: COLO 205
DU-145 = test system: DU-145
EKVX = test system: EKVX
HCC 2998 = test system: HCC 2998
HCT-116 = test system: HCT-116
HCT-15 = test system: HCT-15
HL-60 = test system: HL-60
HOP-62 = test system: HOP-62
HOP-92 = test system: HOP-92
HT-29 = test system: HT-29
Hs-578T = test system: Hs-578T
IGROV-1 = test system: IGROV-1
K562 = test system: K562
KM12 = test system: KM12
M14 = test system: M14
MCF7 = test system: MCF7
MDA-MB-231 = test system: MDA-MB-231
MDA-MB-435 = test system: MDA-MB-435
MDA-N = test system: MDA-N
MOLT-4 = test system: MOLT-4
Malme-3M = test system: Malme-3M
NCI-H226 = test system: NCI-H226
NCI-H23 = test system: NCI-H23
NCI-H460 = test system: NCI-H460
NCI-H522 = test system: NCI-H522
NCI/ADR-RES = test system: NCI/ADR-RES
OVCAR-3 = test system: OVCAR-3
OVCAR-4 = test system: OVCAR-4
OVCAR-5 = test system: OVCAR-5
OVCAR-8 = test system: OVCAR-8
PC-3 = test system: PC-3
RPMI-8226 = test system: RPMI-8226
RXF 393 = test system: RXF 393
SF-268 = test system: SF-268
SF-295 = test system: SF-295
SF-539 = test system: SF-539
SK-MEL-28 = test system: SK-MEL-28
SK-MEL-2 = test system: SK-MEL-2
SK-MEL-5 = test system: SK-MEL-5
SK-OV-3 = test system: SK-OV-3
SN12C = test system: SN12C
SNB-19 = test system: SNB-19
SW-620 = test system: SW-620
T47D = test system: T47D
TK-10 = test system: TK-10
U-251 = test system: U-251
UACC-257 = test system: UACC-257
UACC-62 = test system: UACC-62
UO-31 = test system: UO-31
A498 = test system: A498
LOX IMVI = test system: LOX IMVI
SNB-75 = test system: SNB-75
SR = test system: SR

Measured: GI50

O=S(=O)(O)c1ccc(/N=N/c2ccc(/N=N/c3c(O)c(S(=O)(=O)O)cc4cc(S(=O)(=O)O)ccc34)cc2)cc1
inactive: 786-0 > 100 µM | A549 > 100 µM | ACHN > 100 µM | BT-549 > 100 µM | CAKI-1 > 100 µM | CCRF-CEM > 100 µM | COLO 205 > 100 µM | DU-145 > 100 µM | EKVX > 100 µM | HCC 2998 > 100 µM | HCT-116 > 100 µM | HL-60 > 100 µM | HOP-62 > 100 µM | HOP-92 > 100 µM | HT-29 > 100 µM | Hs-578T > 100 µM | IGROV-1 > 100 µM | K562 > 100 µM | KM12 > 100 µM | M14 > 100 µM | MCF7 > 100 µM | MDA-MB-231 > 100 µM | MDA-MB-435 > 100 µM | MDA-N > 100 µM | MOLT-4 > 100 µM | Malme-3M > 100 µM | NCI-H226 > 100 µM | NCI-H23 > 100 µM | NCI-H460 > 100 µM | NCI-H522 > 100 µM | NCI/ADR-RES > 100 µM | OVCAR-3 > 100 µM | OVCAR-4 > 100 µM | OVCAR-5 > 100 µM | OVCAR-8 > 100 µM | PC-3 > 100 µM | RPMI-8226 > 100 µM | RXF 393 > 100 µM | SF-268 > 100 µM | SF-295 > 100 µM | SF-539 > 100 µM | SK-MEL-28 > 100 µM | SK-MEL-2 > 100 µM | SK-MEL-5 > 100 µM | SK-OV-3 > 100 µM | SN12C > 100 µM | SNB-19 > 100 µM | SW-620 > 100 µM | T47D > 100 µM | TK-10 > 100 µM | U-251 > 100 µM | UACC-257 > 100 µM | UACC-62 > 100 µM | UO-31 > 100 µM
> 100 µM: HCT-15

COC(=O)C(NC(=O)C(CC(=O)OC(C)(C)C)NC(=O)OC(C)(C)C)C(O)c1ccccc1 (stereo not given)
> 100 µM: HCT-15
inactive: 786-0 > 100 µM | A498 > 100 µM | A549 > 100 µM | ACHN > 100 µM | BT-549 > 100 µM | CAKI-1 > 100 µM | CCRF-CEM > 100 µM | COLO 205 > 100 µM | DU-145 > 100 µM | EKVX > 100 µM | HCT-116 > 100 µM | HOP-62 > 100 µM | HT-29 > 100 µM | Hs-578T > 100 µM | IGROV-1 > 100 µM | K562 > 100 µM | KM12 > 100 µM | LOX IMVI > 100 µM | M14 > 100 µM | MCF7 > 100 µM | MDA-MB-231 > 100 µM | MDA-MB-435 > 100 µM | MDA-N > 100 µM | MOLT-4 > 100 µM | Malme-3M > 100 µM | NCI-H226 > 100 µM | NCI-H23 > 100 µM | NCI-H460 > 100 µM | NCI-H522 > 100 µM | NCI/ADR-RES > 100 µM | OVCAR-3 > 100 µM | OVCAR-4 > 100 µM | OVCAR-5 > 100 µM | OVCAR-8 > 100 µM | PC-3 > 100 µM | RPMI-8226 > 100 µM | RXF 393 97.5 µM | SF-268 > 100 µM | SF-539 > 100 µM | SK-MEL-28 > 100 µM | SK-MEL-2 > 100 µM | SK-MEL-5 > 100 µM | SK-OV-3 16.1 µM | SN12C > 100 µM | SNB-19 > 100 µM | SNB-75 > 100 µM | SW-620 > 100 µM | T47D > 100 µM | TK-10 > 100 µM | U-251 > 100 µM | UACC-257 74.5 µM | UACC-62 3.92 µM | UO-31 > 100 µM

CCCCc1ccc(Nc2nc(N)c3ncn(COCCO)c3n2)cc1
19.3 µM: HCT-15
inactive: 786-0 25.5 µM | A498 28.2 µM | A549 44.3 µM | ACHN 18 µM | BT-549 25.5 µM | CAKI-1 38.7 µM | CCRF-CEM 26.4 µM | COLO 205 17.2 µM | DU-145 37.7 µM | EKVX 41.4 µM | HCC 2998 27.2 µM | HCT-116 26.9 µM | HL-60 36.3 µM | HOP-62 17.1 µM | HOP-92 18.2 µM | HT-29 24.4 µM | Hs-578T 36.8 µM | IGROV-1 18 µM | K562 7.01 µM | KM12 32.8 µM | LOX IMVI 18.9 µM | M14 20.6 µM | MCF7 37.4 µM | MDA-MB-231 29 µM | MDA-MB-435 22.1 µM | MDA-N 37.2 µM | MOLT-4 33 µM | Malme-3M 25.7 µM | NCI-H226 44.3 µM | NCI-H23 21.3 µM | NCI-H522 26.1 µM | NCI/ADR-RES 20.9 µM | OVCAR-3 16.6 µM | OVCAR-4 32.2 µM | OVCAR-5 38.8 µM | OVCAR-8 25.9 µM | RPMI-8226 30.6 µM | RXF 393 30.1 µM | SF-268 33 µM | SF-295 19.8 µM | SF-539 28.2 µM | SK-MEL-2 17 µM | SK-MEL-5 18 µM | SK-OV-3 11.2 µM | SN12C 33 µM | SNB-19 48.9 µM | SNB-75 32.6 µM | SR 18 µM | SW-620 26.1 µM | T47D 24.4 µM | TK-10 52.6 µM | U-251 22.1 µM | UACC-257 21.3 µM | UACC-62 16.8 µM | UO-31 29.9 µM
